Activity calls are given as the source filed them. The calls are words filed in the database; no cut-off is given here.
Assays:
[1] = target: T1, von Hippel-Lindau disease tumor suppressor/Inactive tyrosine-protein kinase transmembrane receptor ROR1 (Homo sapiens, UniProt P40337+Q01973); assay: PROTAC activity at VHL/ROR1 in human NCI-H23 cells assessed as induction of ROR1 degradation at 0.1 uM incubated for 24 hrs by Western blot analysis relative to control; format: cell-based
Target sequence in this assay (P40337 whole entry): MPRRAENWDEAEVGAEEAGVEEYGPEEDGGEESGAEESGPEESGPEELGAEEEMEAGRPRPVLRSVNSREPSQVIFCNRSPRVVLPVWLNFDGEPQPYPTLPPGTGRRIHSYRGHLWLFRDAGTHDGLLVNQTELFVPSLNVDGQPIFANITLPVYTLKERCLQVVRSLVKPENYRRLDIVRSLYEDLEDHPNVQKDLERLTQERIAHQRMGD
Target sequence in this assay (Q01973 30-937 partner limits assumed): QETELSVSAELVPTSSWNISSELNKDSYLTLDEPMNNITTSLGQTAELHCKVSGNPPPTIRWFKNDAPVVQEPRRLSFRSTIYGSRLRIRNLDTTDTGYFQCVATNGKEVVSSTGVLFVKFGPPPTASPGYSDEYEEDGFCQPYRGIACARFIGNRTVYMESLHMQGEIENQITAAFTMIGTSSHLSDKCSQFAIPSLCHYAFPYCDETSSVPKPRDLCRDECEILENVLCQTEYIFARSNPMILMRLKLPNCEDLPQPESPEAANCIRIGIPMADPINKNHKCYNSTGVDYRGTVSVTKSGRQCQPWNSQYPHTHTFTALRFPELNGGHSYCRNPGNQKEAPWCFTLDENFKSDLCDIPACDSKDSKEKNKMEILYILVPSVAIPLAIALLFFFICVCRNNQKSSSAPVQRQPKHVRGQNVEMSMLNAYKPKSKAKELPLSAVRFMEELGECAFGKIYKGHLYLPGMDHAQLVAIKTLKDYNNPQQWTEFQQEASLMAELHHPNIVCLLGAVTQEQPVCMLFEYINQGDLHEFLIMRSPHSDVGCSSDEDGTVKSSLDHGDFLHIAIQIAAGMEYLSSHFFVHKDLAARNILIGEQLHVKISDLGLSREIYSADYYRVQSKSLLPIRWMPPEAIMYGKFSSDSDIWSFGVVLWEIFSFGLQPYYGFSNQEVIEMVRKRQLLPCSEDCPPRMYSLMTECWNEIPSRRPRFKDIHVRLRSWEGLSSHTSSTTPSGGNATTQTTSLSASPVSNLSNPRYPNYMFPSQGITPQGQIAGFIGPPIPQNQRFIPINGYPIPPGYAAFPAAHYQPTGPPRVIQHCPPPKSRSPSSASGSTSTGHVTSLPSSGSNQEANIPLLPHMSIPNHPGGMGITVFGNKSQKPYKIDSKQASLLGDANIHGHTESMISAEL

[2] = target: T1, von Hippel-Lindau disease tumor suppressor/Inactive tyrosine-protein kinase transmembrane receptor ROR1; assay: PROTAC activity at VHL/ROR1 in human NCI-H23 cells assessed as induction of ROR1 degradation at 1 uM incubated for 24 hrs by Western blot analysis relative to control; format: cell-based
Target sequence in this assay (P40337 whole entry): as the sequence (P40337 whole entry) above
Target sequence in this assay (Q01973 30-937 partner limits assumed): as the sequence (Q01973 30-937 partner limits assumed) above

[3] = test system: NCI-H23; assay: Induction of apoptosis in human NCI-H23 cells assessed as PARP1 cleavage at 0.1 uM measured after 10 hrs by Western blot analysis; format: functional, cell-based
[4] = target: T1, von Hippel-Lindau disease tumor suppressor/Inactive tyrosine-protein kinase transmembrane receptor ROR1; assay: PROTAC activity at VHL/ROR1 in human NCI-H1975 cells assessed as induction of ROR1 degradation incubated for 12 hrs by Western blot analysis; format: cell-based
Target sequence in this assay (P40337 whole entry): as the sequence (P40337 whole entry) above
Target sequence in this assay (Q01973 whole entry): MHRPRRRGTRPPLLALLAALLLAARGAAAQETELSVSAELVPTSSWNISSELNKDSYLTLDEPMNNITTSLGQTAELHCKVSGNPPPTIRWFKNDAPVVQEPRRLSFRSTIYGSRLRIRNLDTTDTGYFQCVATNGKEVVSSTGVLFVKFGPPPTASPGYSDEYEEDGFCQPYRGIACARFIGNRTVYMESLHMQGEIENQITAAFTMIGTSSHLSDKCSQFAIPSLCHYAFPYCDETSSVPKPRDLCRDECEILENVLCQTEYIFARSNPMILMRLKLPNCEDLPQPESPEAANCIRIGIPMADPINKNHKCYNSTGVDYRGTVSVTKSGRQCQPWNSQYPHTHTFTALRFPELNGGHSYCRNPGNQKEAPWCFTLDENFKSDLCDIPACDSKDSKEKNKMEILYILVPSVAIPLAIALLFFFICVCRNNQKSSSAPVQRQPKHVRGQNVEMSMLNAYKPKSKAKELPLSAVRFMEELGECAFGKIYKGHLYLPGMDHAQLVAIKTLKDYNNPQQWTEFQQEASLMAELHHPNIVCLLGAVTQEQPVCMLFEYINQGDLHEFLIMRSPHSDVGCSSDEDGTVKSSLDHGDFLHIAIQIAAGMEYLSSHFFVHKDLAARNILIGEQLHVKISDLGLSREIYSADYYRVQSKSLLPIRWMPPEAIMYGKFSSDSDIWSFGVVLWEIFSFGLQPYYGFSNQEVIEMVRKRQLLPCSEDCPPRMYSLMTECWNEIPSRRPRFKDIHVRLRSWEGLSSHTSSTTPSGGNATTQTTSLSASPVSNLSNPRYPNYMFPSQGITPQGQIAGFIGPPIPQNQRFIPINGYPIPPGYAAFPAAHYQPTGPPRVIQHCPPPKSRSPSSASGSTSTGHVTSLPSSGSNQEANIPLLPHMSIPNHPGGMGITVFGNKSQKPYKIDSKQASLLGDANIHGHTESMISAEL

[5] = test system: NCI-H23; assay: Induction of apoptosis in human NCI-H23 cells assessed as necrotic cells at 0.1 uM incubated for 24 hrs by […]/Annexin V-PE staining based flow cytometric analysis (reference value: 0.5 %); format: functional
[6] = test system: NCI-H1975; assay: Antiproliferative activity against human NCI-H1975 cells assessed as inhibition of cell proliferation incubated for 72 hrs by CCK8 assay; format: functional, cell-based; settings: NCI-H1975, 72 h
[7] = target: T1, von Hippel-Lindau disease tumor suppressor/Inactive tyrosine-protein kinase transmembrane receptor ROR1; assay: PROTAC activity at VHL/ROR1 in human NCI-H23 cells assessed as induction of ROR1 degradation at 1 uM by Western blot analysis; format: cell-based; settings: time 2-24 hrs
Target sequence in this assay (P40337 whole entry): as the sequence (P40337 whole entry) above
Target sequence in this assay (Q01973 30-937 partner limits assumed): as the sequence (Q01973 30-937 partner limits assumed) above

[8] = target: T2, von Hippel-Lindau disease tumor suppressor/Tyrosine-protein kinase transmembrane receptor ROR2 (Homo sapiens) (UniProt Q01974+P40337); assay: PROTAC activity at VHL/ROR2 in human NCI-H23 cells assessed as induction of ROR2 degradation by Western blot analysis; format: cell-based
[9] = test system: NCI-H23; assay: Induction of apoptosis in human NCI-H23 cells assessed as necrotic cells at 1 uM incubated for 24 hrs by […]/Annexin V-PE staining based flow cytometric analysis (reference value: 0.5 %); format: functional
[10] = test system: NCI-H23; assay: Induction of apoptosis in human NCI-H23 cells assessed as viable cells at 0.1 uM incubated for 24 hrs by […]/Annexin V-PE staining based flow cytometric analysis (reference value: 92.7 %); format: functional; settings: read-out: Activity
[11] = target: T2, von Hippel-Lindau disease tumor suppressor/Tyrosine-protein kinase transmembrane receptor ROR2 (Homo sapiens); assay: PROTAC activity at VHL/ROR2 in human NCI-H1975 cells assessed as induction of ROR2 degradation at 1 uM by Western blot analysis; format: cell-based
[12] = test system: NCI-H460; assay: Antiproliferative activity against human NCI-H460 cells assessed as inhibition of cell proliferation incubated for 72 hrs by CCK8 assay; format: functional, cell-based; settings: NCI-H460, 72 h
[13] = target: T3, von Hippel-Lindau disease tumor suppressor/Cyclin-dependent kinase 4 (Homo sapiens) (UniProt P11802+P40337); assay: PROTAC activity at VHL/CDK4 in human NCI-H1975 cells assessed as induction of CDK4 degradation by Western blot analysis; format: cell-based
[14] = test system: NCI-H23; assay: Antiproliferative activity against human NCI-H23 cells assessed as inhibition of cell proliferation incubated for 72 hrs by CCK8 assay; format: functional, cell-based; settings: NCI-H23, 72 h
[15] = target: T4, von Hippel-Lindau disease tumor suppressor/Cyclin-dependent kinase 7 (Homo sapiens) (UniProt P50613+P40337); assay: PROTAC activity at VHL/CDK7 in human NCI-H1975 cells assessed as induction of CDK7 degradation by Western blot analysis; format: cell-based
[16] = target: T4, von Hippel-Lindau disease tumor suppressor/Cyclin-dependent kinase 7 (Homo sapiens); assay: PROTAC activity at VHL/CDK7 in human NCI-H23 cells assessed as induction of CDK7 degradation by Western blot analysis; format: cell-based
[17] = test system: NCI-H23; assay: Induction of apoptosis in human NCI-H23 cells assessed as necrotic cells at 0.3 uM incubated for 24 hrs by […]/Annexin V-PE staining based flow cytometric analysis (reference value: 0.5 %); format: functional
[18] = test system: NCI-H23; assay: Induction of apoptosis in human NCI-H23 cells assessed as viable cells at 1 uM incubated for 24 hrs by […]/Annexin V-PE staining based flow cytometric analysis (reference value: 92.7 %); format: functional; settings: read-out: Activity
[19] = target: T5, von Hippel-Lindau disease tumor suppressor/Cyclin-dependent kinase-like 2 (Homo sapiens) (UniProt Q92772+P40337); assay: PROTAC activity at VHL/CDKL2 in human NCI-H23 cells assessed as induction of CDKL2 degradation by Western blot analysis; format: cell-based
[20] = target: T1, von Hippel-Lindau disease tumor suppressor/Inactive tyrosine-protein kinase transmembrane receptor ROR1; assay: PROTAC activity at VHL/ROR1 in human NCI-H23 cells assessed as induction of ROR1 degradation preincubated with cycloheximide followed by compound addition and measured after 6 hrs by Western blot analysis; format: cell-based
Target sequence in this assay (P40337 whole entry): as the sequence (P40337 whole entry) above
Target sequence in this assay (Q01973 30-937 partner limits assumed): as the sequence (Q01973 30-937 partner limits assumed) above

[21] = target: T1, von Hippel-Lindau disease tumor suppressor/Inactive tyrosine-protein kinase transmembrane receptor ROR1; assay: PROTAC activity at VHL/ROR1 in human NCI-H23 cells assessed as induction of ROR1 degradation at 1 uM incubated for 24 hrs by Western blot analysis; format: cell-based
Target sequence in this assay (P40337 whole entry): as the sequence (P40337 whole entry) above
Target sequence in this assay (Q01973 30-937 partner limits assumed): as the sequence (Q01973 30-937 partner limits assumed) above

[22] = target: T1, von Hippel-Lindau disease tumor suppressor/Inactive tyrosine-protein kinase transmembrane receptor ROR1; assay: PROTAC activity at VHL/ROR1 in human NCI-H1299 cells assessed as induction of ROR1 degradation incubated for 12 hrs by Western blot analysis; format: cell-based
Target sequence in this assay (P40337 whole entry): as the sequence (P40337 whole entry) above
Target sequence in this assay (Q01973 whole entry): as the sequence (Q01973 whole entry) above

[23] = target: T1, von Hippel-Lindau disease tumor suppressor/Inactive tyrosine-protein kinase transmembrane receptor ROR1; assay: PROTAC activity at VHL/ROR1 in human NCI-H23 cells assessed as induction of ROR1 degradation at 0.7 uM preincubated with TAK-243 for 2 hrs followed by compound addition and measured after 24 hrs by Western blot analysis; format: cell-based
Target sequence in this assay (P40337 whole entry): as the sequence (P40337 whole entry) above
Target sequence in this assay (Q01973 30-937 partner limits assumed): as the sequence (Q01973 30-937 partner limits assumed) above

[24] = test system: NCI-H23; assay: Induction of apoptosis in human NCI-H23 cells assessed as early apoptotic cells at 0.3 uM incubated for 24 hrs by […]/Annexin V-PE staining based flow cytometric analysis (reference value: 5.1 %); format: functional
[25] = target: T1, von Hippel-Lindau disease tumor suppressor/Inactive tyrosine-protein kinase transmembrane receptor ROR1; assay: PROTAC activity at VHL/ROR1 in human NCI-H23 cells assessed as induction of ROR1 degradation incubated for 12 hrs by Western blot analysis; format: cell-based
[26] = test system: NCI-H23; assay: Induction of apoptosis in human NCI-H23 cells assessed as early apoptotic cells at 1 uM incubated for 24 hrs by […]/Annexin V-PE staining based flow cytometric analysis (reference value: 5.1 %); format: functional
[27] = test system: NCI-H23; assay: Induction of apoptosis in human NCI-H23 cells assessed as late apoptotic cells at 0.3 uM incubated for 24 hrs by […]/Annexin V-PE staining based flow cytometric analysis (reference value: 1.6 %); format: functional
[28] = test system: NCI-H23; assay: Induction of apoptosis in human NCI-H23 cells assessed as late apoptotic cells at 1 uM incubated for 24 hrs by […]/Annexin V-PE staining based flow cytometric analysis (reference value: 1.6 %); format: functional
[29] = target: T3, von Hippel-Lindau disease tumor suppressor/Cyclin-dependent kinase 4 (Homo sapiens); assay: PROTAC activity at VHL/CDK4 in human NCI-H23 cells assessed as induction of CDK4 degradation by Western blot analysis; format: cell-based
[30] = test system: NCI-H23; assay: Induction of apoptosis in human NCI-H23 cells assessed as early apoptotic cells at 0.1 uM incubated for 24 hrs by […]/Annexin V-PE staining based flow cytometric analysis (reference value: 5.1 %); format: functional
[31] = target: T1, von Hippel-Lindau disease tumor suppressor/Inactive tyrosine-protein kinase transmembrane receptor ROR1; assay: PROTAC activity at VHL/ROR1 in human NCI-H23 cells assessed as induction of ROR1 degradation at 0.7 uM preincubated with PS-341 for 2 hrs followed by compound addition and measured after 24 hrs by Western blot analysis; format: cell-based
[32] = target: T1, von Hippel-Lindau disease tumor suppressor/Inactive tyrosine-protein kinase transmembrane receptor ROR1; assay: PROTAC activity at VHL/ROR1 in human NCI-H460 cells assessed as induction of ROR1 degradation incubated for 12 hrs by Western blot analysis; format: cell-based
Target sequence in this assay (P40337 whole entry): as the sequence (P40337 whole entry) above
Target sequence in this assay (Q01973 whole entry): as the sequence (Q01973 whole entry) above

[33] = target: T1, von Hippel-Lindau disease tumor suppressor/Inactive tyrosine-protein kinase transmembrane receptor ROR1; assay: PROTAC activity at VHL/ROR1 in human NCI-H23 cells assessed as induction of ROR1 degradation at 0.5 uM preincubated with bafilomycin A1 for 2 hrs followed by compound addition and measured after 24 hrs by Western blot analysis; format: cell-based
[34] = test system: NCI-H23; assay: Induction of apoptosis in human NCI-H23 cells assessed as viable cells at 0.3 uM incubated for 24 hrs by […]/Annexin V-PE staining based flow cytometric analysis (reference value: 92.7 %); format: functional; settings: read-out: Activity
[35] = test system: NCI-H23; assay: Induction of apoptosis in human NCI-H23 cells assessed as late apoptotic cells at 0.1 uM incubated for 24 hrs by […]/Annexin V-PE staining based flow cytometric analysis (reference value: 1.6 %); format: functional
[36] = test system: NCI-H1299; assay: Antiproliferative activity against human NCI-H1299 cells assessed as inhibition of cell proliferation incubated for 72 hrs by CCK8 assay; format: functional, cell-based; settings: NCI-H1299, 72 h
[37] = target: T1, von Hippel-Lindau disease tumor suppressor/Inactive tyrosine-protein kinase transmembrane receptor ROR1; assay: PROTAC activity at VHL/ROR1 in human NCI-H23 cells assessed as induction of ROR1 degradation by measuring maximal efficacy at 10 to 1000 nM incubated for 12 hrs by Western blot analysis relative to control; format: cell-based; settings: dose 10-1000 nM
[38] = target: T1, von Hippel-Lindau disease tumor suppressor/Inactive tyrosine-protein kinase transmembrane receptor ROR1; assay: PROTAC activity at VHL/ROR1 in human NCI-H23 cells assessed as induction of ROR1 degradation at 1 uM incubated for 4 hrs by Western blot analysis; format: cell-based
[39] = target: T5, von Hippel-Lindau disease tumor suppressor/Cyclin-dependent kinase-like 2 (Homo sapiens); assay: PROTAC activity at VHL/CDKL2 in human NCI-H1975 cells assessed as induction of CDKL2 degradation by Western blot analysis; format: cell-based

T3 sequence (P11802 2-303 limits assumed): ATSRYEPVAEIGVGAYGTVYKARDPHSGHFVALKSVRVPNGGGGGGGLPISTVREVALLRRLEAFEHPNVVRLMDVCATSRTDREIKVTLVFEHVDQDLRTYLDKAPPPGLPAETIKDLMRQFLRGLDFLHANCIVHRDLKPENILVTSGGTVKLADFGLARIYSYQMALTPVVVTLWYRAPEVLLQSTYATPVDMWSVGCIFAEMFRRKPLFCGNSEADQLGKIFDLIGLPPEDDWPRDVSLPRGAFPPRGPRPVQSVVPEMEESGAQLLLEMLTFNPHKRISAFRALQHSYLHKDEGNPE
T3 sequence (P40337 whole entry partner): as the sequence (P40337 whole entry) above
T4 sequence (P40337 whole entry, looked up): as the sequence (P40337 whole entry) above
T4 sequence (P50613 whole entry, looked up): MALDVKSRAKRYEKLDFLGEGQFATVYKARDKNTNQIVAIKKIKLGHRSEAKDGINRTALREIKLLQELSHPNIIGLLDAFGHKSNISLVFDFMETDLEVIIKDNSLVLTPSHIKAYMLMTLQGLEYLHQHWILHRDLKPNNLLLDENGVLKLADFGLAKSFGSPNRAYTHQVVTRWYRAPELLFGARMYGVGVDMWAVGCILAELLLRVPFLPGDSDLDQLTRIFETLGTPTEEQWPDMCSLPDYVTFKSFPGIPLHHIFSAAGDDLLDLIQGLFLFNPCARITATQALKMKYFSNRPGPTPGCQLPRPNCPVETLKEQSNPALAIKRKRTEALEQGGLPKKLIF
T5 sequence (P40337 whole entry, looked up): as the sequence (P40337 whole entry) above
T5 sequence (Q92772 whole entry, looked up): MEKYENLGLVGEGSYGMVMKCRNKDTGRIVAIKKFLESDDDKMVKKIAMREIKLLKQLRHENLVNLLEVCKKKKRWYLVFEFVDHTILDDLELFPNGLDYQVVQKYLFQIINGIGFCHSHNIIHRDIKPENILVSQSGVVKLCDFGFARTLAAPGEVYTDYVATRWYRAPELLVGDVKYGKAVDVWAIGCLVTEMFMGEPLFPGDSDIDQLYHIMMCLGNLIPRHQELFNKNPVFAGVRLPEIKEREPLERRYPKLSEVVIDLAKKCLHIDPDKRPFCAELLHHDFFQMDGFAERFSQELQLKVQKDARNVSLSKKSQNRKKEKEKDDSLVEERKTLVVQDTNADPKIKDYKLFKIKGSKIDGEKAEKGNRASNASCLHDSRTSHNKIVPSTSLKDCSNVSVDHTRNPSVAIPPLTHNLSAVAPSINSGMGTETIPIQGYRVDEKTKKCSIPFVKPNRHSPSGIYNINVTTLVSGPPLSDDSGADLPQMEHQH

## CCN1CCC(Nc2c(Br)cnc3[nH]c(-c4ccc(N5CCN(CCCCCCCCCC(=O)N[C@H](C(=O)N6C[C@H](O)C[C@H]6C(=O)NCc6ccc(-c7scnc7C)cc6)C(C)(C)C)CC5)cc4)nc23)CC1
[1]
  Activity: 28.1%
[2]
  Activity: 88.4%

## CCN1CCC(Nc2c(Br)cnc3[nH]c(-c4ccc(N5CCN(C(=O)CCCCCCCCC(=O)N[C@H](C(=O)N6C[C@H](O)C[C@H]6C(=O)NCc6ccc(-c7scnc7C)cc6)C(C)(C)C)CC5)cc4)nc23)CC1
[3]
  Activity: Active
[4]
  DC50: 42.1 nM
[5]
  Activity: 0.3%
[1]
  Activity: 93%
[6]
  IC50: 63 nM
[7]
  Activity: Time-dependent-effect
[8]
  Activity: inactive
[9]
  Activity: 1.4%
[10]
  viability at 0.1 µM: 63.2%
[11]
  Activity: Active; Slight Degradation Observed
[12]
  IC50: 85 nM
[13]
  Activity: inactive
[14]
  IC50: 36 nM
[15]
  Activity: inactive
[16]
  Activity: inactive
[17]
  Activity: 0.8%
[18]
  viability at 1 µM: 29.9%
[19]
  Activity: inactive
[20]
  Activity: Active; Compound Reduction Ror1 Protein Via Protein Degradation Pathway
[21]
  Activity: Active; Maximal Degradation Observed
[22]
  DC50: 83.3 nM
[23]
  Activity: inactive
[24]
  Activity: 46.5%
[25]
  Activity: Dose-dependent-effect
  DC50: 40.9 nM
[26]
  Activity: 46.9%
[27]
  Activity: 20.1%
[28]
  Activity: 22.1%
[29]
  Activity: inactive
[30]
  Activity: 29.9%
[31]
  Activity: inactive
[32]
  DC50: 69 nM
[33]
  Activity: Active
[2]
  Activity: 99.7%
[34]
  viability at 0.3 µM: 32.5%
[35]
  Activity: 6.5%
[36]
  IC50: 164 nM
[37]
  Emax: 93.7%
[38]
  Activity: Active
[39]
  Activity: inactive

## CCN1CCC(Nc2c(Br)cnc3[nH]c(-c4ccc(N5CCN(CCCCCCCC(=O)N[C@H](C(=O)N6C[C@H](O)C[C@H]6C(=O)NCc6ccc(-c7scnc7C)cc6)C(C)(C)C)CC5)cc4)nc23)CC1
[1]
  Activity: 52.5%
[2]
  Activity: 99.6%

## CCN1CCC(Nc2c(Br)cnc3[nH]c(-c4ccc(N5CCN(C(=O)CCCCCCC(=O)N[C@H](C(=O)N6C[C@H](O)C[C@H]6C(=O)NCc6ccc(-c7scnc7C)cc6)C(C)(C)C)CC5)cc4)nc23)CC1
[1]
  Activity: 36.5%
[2]
  Activity: 84.1%

## CCN1CCC(Nc2c(Br)cnc3[nH]c(-c4ccc(N5CCN(C(=O)CCCCC(=O)N[C@H](C(=O)N6C[C@H](O)C[C@H]6C(=O)NCc6ccc(-c7scnc7C)cc6)C(C)(C)C)CC5)cc4)nc23)CC1
[1]
  Activity: 12.9%
[2]
  Activity: 35.3%

Reference: ChEMBL document CHEMBL6153104, “Discovery of the first potent ROR1 degrader for the treatment of non-small cell lung cancer” (Eur J Med Chem, 2025)
